Measurements published in ChEMBL document CHEMBL5360582, “Caryophyllene Sesquiterpenes from a Chaetomium globosum Endophyte of the Canadian Medicinal Plant Empetrum nigrum” (J Nat Prod, 2023).
In brackets after ≈: the same amount, converted by molar mass. Activity calls are given as the source filed them. The calls are words filed in the database; no cut-off is given here.

What was measured:
[1] = system: SMMC-7721; experiment: Cytotoxicity against human SMMC-7721 cells assessed as inhibition of cell growth incubated for 68 hrs by MTT assay; format: functional, cell-based; settings: SMMC-7721, 68 h
[2] = system: Pseudomonas aeruginosa; experiment: Antibacterial activity against Pseudomonas aeruginosa ATCC 10145 assessed as inhibition of bacterial growth at 100 microg/ml; format: functional, organism-based; settings: dose 100.0 µg/ml
[3] = system: Candida albicans; experiment: Antifungal activity against Candida albicans ATCC 14053 assessed as inhibition of bacterial growth at 100 microg/ml; format: functional, organism-based; settings: dose 100.0 µg/ml
[4] = system: Staphylococcus aureus; experiment: Antibacterial activity against Staphylococcus aureus ATCC 29213 assessed as inhibition of bacterial growth at 100 microg/ml; format: functional, organism-based; settings: dose 100.0 µg/ml
[5] = system: Mycobacterium tuberculosis; experiment: Antimycobacterial activity against Mycobacterium tuberculosis H37Ra ATCC 25177 assessed as inhibition of bacterial growth at 100 microg/ml; format: functional, organism-based; settings: dose 100.0 µg/ml
[6] = system: Staphylococcus aureus; experiment: Antibacterial activity against Staphylococcus aureus ATCC 29213 assessed as inhibition of bacterial growth; format: functional, organism-based
[7] = system: Mycobacterium tuberculosis; experiment: Antimycobacterial activity against Mycobacterium tuberculosis H37Ra ATCC 25177 assessed as inhibition of bacterial growth; format: functional, organism-based

Row | Compound | IC50 [1] [µM] | Activity [2] | Activity [3] | Activity [4] | Activity [5] | other results
1 | COc1cc([C@@H]2c3cc4c(cc3[C@@H](O[C@@H]3O[C@@H]5CO[C@@H](C)O[C@H]5[C@H](O)[C@H]3O)[C@H]3COC(=O)[C@H]23)OCO4)cc(OC)c1O [ETOPOSIDE] | 23.2 | – | – | – | – | –
2 | CC1(C)C[C@@H]2/C(CO)=C\C=C/[C@@](C)(O)CC[C@]21O | – | inactive | inactive | inactive | inactive | –
3 | CC1(C)C[C@@H]2[C@@]3(CO)C=C[C@@H](O)[C@@]3(C)CC[C@]21O | – | inactive | inactive | inactive | inactive | –
4 | CO[C@H]1[C@@H]2[C@@H](O)O[C@]3([C@H](OC(C)=O)C/C(C)=C\[C@@H]1OC)[C@H]2CC3(C)C | 28.3 | – | – | – | – | –
5 | C/C1=C/[C@@H](OC(=O)CCC(=O)O)/C=C(/C=O)[C@H]2CC(C)(C)[C@]2(O)CC1 | – | – | – | – | – | IC50 [6]: 83 µg/mL (≈ 237 µM); IC50 [7]: 36.8 µg/mL (≈ 105 µM)
